Measurements as given in ChEMBL document CHEMBL3621174, “Synthesis and evaluation of new tyrosyl-tRNA synthetase inhibitors as antibacterial agents based on a N2-(arylacetyl)glycinanilide scaffold” (Eur J Med Chem, 2015).
≈ marks a conversion by molar mass, not a printed value.

What was measured:
Pseudomonas aeruginosa = assay: Antibacterial activity against Pseudomonas aeruginosa ATCC 9027 after 24 hr by MTT assay; format: functional; conditions: ATCC 9027, 24 h
Escherichia coli [1] = assay: Antibacterial activity against Escherichia coli ATCC 8739 after 24 hr by MTT assay; format: functional; conditions: ATCC 8739, 24 h
Staphylococcus aureus [2] = assay: Antibacterial activity against Staphylococcus aureus ATCC 25923 after 24 hr by MTT assay; format: functional; conditions: ATCC 25923, 24 h
[3] = Inhibition of Staphylococcus aureus Tyrosyl-tRNA synthetase using L-[ring-3,5-3H] tyrosine as substrate after 10 min by liquid scintillation assay
Staphylococcus aureus [4] = assay: Antibacterial activity against Staphylococcus aureus ATCC 6538 after 24 hr by MTT assay; format: functional; conditions: ATCC 6538, 24 h
Escherichia coli [5] = assay: Antibacterial activity against Escherichia coli ATCC 35218 after 24 hr by MTT assay; format: functional; conditions: ATCC 35218, 24 h

Compound	MIC (Pseudomonas aeruginosa)	MIC (Escherichia coli [1])	MIC (Staphylococcus aureus [2])	IC50 [3]	MIC (Staphylococcus aureus [4])	MIC (Escherichia coli [5])
O=C(Cc1cccc(Cl)c1)NCC(=O)Nc1ccc(Br)cc1	96.1 µM (≈ 36.7 µg/mL)	62.4 µM (≈ 23.8 µg/mL)	24.9 µM (≈ 9.5 µg/mL)	8.36 µM	20.9 µM (≈ 7.98 µg/mL)	83.4 µM (≈ 31.8 µg/mL)
O=C(Cc1ccccc1)NCC(=O)Nc1cc(Cl)cc(Cl)c1	> 160 µM	> 160 µM	> 160 µM	133 µM	> 160 µM	> 160 µM
COc1ccc(CC(=O)NCC(=O)Nc2ccc([N+](=O)[O-])cc2)cc1OC	> 160 µM	> 160 µM	> 160 µM	88.5 µM	> 160 µM	> 160 µM
O=C(Cc1ccccc1)NCC(=O)Nc1cccc(Cl)c1	> 160 µM	> 160 µM	> 160 µM	144 µM	> 160 µM	> 160 µM
NC[C@H]1O[C@H](O[C@H]2[C@H](O)[C@@H](O[C@H]3O[C@H](CO)[C@@H](O)[C@H](N)[C@H]3O)[C@H](N)C[C@@H]2N)[C@H](O)[C@@H](O)[C@@H]1O [KANAMYCIN]	7.16 µM (≈ 3.47 µg/mL)	1.26 µM (≈ 0.61 µg/mL)				4.35 µM (≈ 2.11 µg/mL)
O=C(Cc1cccc(Br)c1)NCC(=O)Nc1ccc(Br)cc1	> 160 µM	> 160 µM	> 160 µM	58.4 µM	97.2 µM (≈ 41.4 µg/mL)	> 160 µM
O=C(Cc1ccccc1Cl)NCC(=O)Nc1ccc(Br)cc1	> 160 µM	> 160 µM	103 µM (≈ 39.5 µg/mL)	77.8 µM	69.7 µM (≈ 26.6 µg/mL)	> 160 µM
COc1ccc(NC(=O)CNC(=O)Cc2ccc(Cl)cc2)cc1	> 160 µM	> 160 µM	> 160 µM	70.1 µM	> 160 µM	> 160 µM
COc1ccc(NC(=O)CNC(=O)Cc2cccc(F)c2)cc1	> 160 µM	> 160 µM	> 160 µM	92.7 µM	> 160 µM	> 160 µM
COc1ccc(NC(=O)CNC(=O)Cc2ccc(OC)c(OC)c2)cc1	> 160 µM	> 160 µM	> 160 µM	556 µM	> 160 µM	> 160 µM
Cc1ccc(CC(=O)NCC(=O)Nc2ccc([N+](=O)[O-])cc2)cc1	> 160 µM	> 160 µM	132 µM (≈ 43.2 µg/mL)	44.6 µM	80.7 µM (≈ 26.4 µg/mL)	> 160 µM
COc1ccc(NC(=O)CNC(=O)Cc2ccccc2)cc1OC	> 160 µM	> 160 µM	> 160 µM	162 µM	> 160 µM	> 160 µM
COc1ccc(NC(=O)CNC(=O)Cc2ccc(F)cc2)cc1	> 160 µM	> 160 µM	> 160 µM	112 µM	> 160 µM	> 160 µM
O=C(Cc1cccc(O)c1)NCC(=O)Nc1ccc([N+](=O)[O-])cc1	72 µM (≈ 23.7 µg/mL)	47.1 µM (≈ 15.5 µg/mL)	18.4 µM (≈ 6.06 µg/mL)	6.41 µM	15.2 µM (≈ 5.01 µg/mL)	89.4 µM (≈ 29.4 µg/mL)
O=C(Cc1ccccc1)NCC(=O)Nc1ccc(Cl)cc1	> 160 µM	123 µM (≈ 37.3 µg/mL)	69.2 µM (≈ 21 µg/mL)	16.6 µM	49.7 µM (≈ 15 µg/mL)	159 µM (≈ 48.1 µg/mL)
COc1ccc(NC(=O)CNC(=O)Cc2ccc(O)cc2)cc1	> 160 µM	> 160 µM	> 160 µM	319 µM	> 160 µM	> 160 µM
O=C(Cc1ccc(F)cc1)NCC(=O)Nc1ccc([N+](=O)[O-])cc1	65.6 µM (≈ 21.7 µg/mL)	42.3 µM (≈ 14 µg/mL)	17 µM (≈ 5.63 µg/mL)	5.25 µM	14.1 µM (≈ 4.67 µg/mL)	75.8 µM (≈ 25.1 µg/mL)

Compound	MIC (Pseudomonas aeruginosa)	MIC (Escherichia coli [1])	MIC (Staphylococcus aureus [2])	IC50 [3]	MIC (Staphylococcus aureus [4])	MIC (Escherichia coli [5])
O=C(Cc1cccc(F)c1)NCC(=O)Nc1ccc([N+](=O)[O-])cc1	18.2 µM (≈ 6.03 µg/mL)	12.3 µM (≈ 4.08 µg/mL)	4.11 µM (≈ 1.36 µg/mL)	1.14 µM	3.14 µM (≈ 1.04 µg/mL)	19.6 µM (≈ 6.49 µg/mL)
O=C(Cc1ccc(O)cc1)NCC(=O)Nc1ccc([N+](=O)[O-])cc1	134 µM (≈ 44.1 µg/mL)	86.9 µM (≈ 28.6 µg/mL)	34.1 µM (≈ 11.2 µg/mL)	10.2 µM	28.6 µM (≈ 9.42 µg/mL)	144 µM (≈ 47.4 µg/mL)
Cc1ccc(NC(=O)CNC(=O)Cc2cccc(Cl)c2)cc1	> 160 µM	155 µM (≈ 49.2 µg/mL)	91.1 µM (≈ 28.9 µg/mL)	21.4 µM	64.9 µM (≈ 20.6 µg/mL)	> 160 µM
COc1ccc(NC(=O)CNC(=O)Cc2cccc(Cl)c2)cc1	> 160 µM	> 160 µM	148 µM (≈ 49.3 µg/mL)	66.5 µM	148 µM (≈ 49.3 µg/mL)	> 160 µM
O=C(Cc1ccccc1)NCC(=O)Nc1ccc(Br)cc1	> 160 µM	> 160 µM	> 160 µM	50.6 µM	113 µM (≈ 39.3 µg/mL)	> 160 µM
O=C(Cc1ccccc1)NCC(=O)Nc1cc(F)cc(F)c1	148 µM (≈ 45.1 µg/mL)	120 µM (≈ 36.5 µg/mL)	47.7 µM (≈ 14.5 µg/mL)	13.1 µM	40.5 µM (≈ 12.3 µg/mL)	> 160 µM
O=C(Cc1ccccc1)NCC(=O)Nc1cccc([N+](=O)[O-])c1	> 160 µM	> 160 µM	156 µM (≈ 48.9 µg/mL)	47.8 µM	103 µM (≈ 32.3 µg/mL)	> 160 µM
COc1ccc(NC(=O)CNC(=O)Cc2cccc(O)c2)cc1	> 160 µM	> 160 µM	> 160 µM	279 µM	> 160 µM	> 160 µM
O=C(Cc1ccccc1)NCC(=O)Nc1ccccc1Cl	> 160 µM	> 160 µM	> 160 µM	205 µM	> 160 µM	> 160 µM
COc1ccc(NC(=O)CNC(=O)Cc2ccccc2O)cc1	> 160 µM	> 160 µM	> 160 µM	478 µM	> 160 µM	> 160 µM
COc1ccc(NC(=O)CNC(=O)Cc2ccccc2)cc1	> 160 µM	> 160 µM	> 160 µM	82 µM	> 160 µM	> 160 µM
COc1ccc(NC(=O)CNC(=O)Cc2ccccc2Cl)cc1	> 160 µM	> 160 µM	> 160 µM	189 µM	> 160 µM	> 160 µM
O=C(Cc1ccccc1)NCC(=O)Nc1ccccc1	> 160 µM	134 µM (≈ 35.9 µg/mL)	73.5 µM (≈ 19.7 µg/mL)	19.3 µM	52.7 µM (≈ 14.1 µg/mL)	> 160 µM
O=C(Cc1ccccc1Cl)NCC(=O)Nc1ccc([N+](=O)[O-])cc1	34 µM (≈ 11.8 µg/mL)	13.5 µM (≈ 4.69 µg/mL)	8.41 µM (≈ 2.92 µg/mL)	2.52 µM	6.51 µM (≈ 2.26 µg/mL)	19.7 µM (≈ 6.85 µg/mL)
CC1(C)S[C@@H]2[C@H](NC(=O)Cc3ccccc3)C(=O)N2[C@H]1C(=O)O [PENICILLIN G]			9.28 µM (≈ 3.1 µg/mL)		7.13 µM (≈ 2.38 µg/mL)	
O=C(Cc1ccc(Cl)cc1)NCC(=O)Nc1cc(Cl)cc(Cl)c1	> 160 µM	> 160 µM	> 160 µM	254 µM	> 160 µM	> 160 µM
O=C(Cc1ccccc1)NCC(=O)Nc1ccc([N+](=O)[O-])cc1	18.2 µM (≈ 5.7 µg/mL)	11.2 µM (≈ 3.51 µg/mL)	3.67 µM (≈ 1.15 µg/mL)	0.87 µM	2.81 µM (≈ 0.88 µg/mL)	15.8 µM (≈ 4.95 µg/mL)
